Measurements: paper PMC9144402, “An Octopus-Derived Peptide with Antidiuretic Activity in Rats” (Marine Drugs, 2022)
Positions of bridges follow the written chain, without caps; N, C: chain ends. Residues, ends and D or L forms follow the SMILES beside them. No end group written: not given here.

Key:
rat V2R = test system: rat V2R; parameters: method as in PMID 9264324; settings: ref [8]; cited from earlier work
Sprague-Dawley (SD) rats [1] = assay: Antidiuretic experiment in SD rats (single tail intravenous injection, metabolic cage); type: in vivo, rat
Sprague-Dawley (SD) rats [2] = assay: Death and signs of toxicity after intravenous injection in SD rats; type: in vivo, rat; settings: for death or signs of toxicity: injection, 'the same doses' (AVP: data not shown)
rat V1bR = test system: rat V1bR; parameters: method as in PMID 9264324; settings: ref [8]; cited from earlier work
[3] = test system: HEK293T human kidney cells; assay: CCK-8 cell viability assay and morphology, HEK293T; type: cell-based; settings: for viable HEK293T cells: 0.1–50 μM
Description: Human kidney HEK293T cells were obtained from the American Type Culture Collection (ATCC, Manassas, VA, USA). The 293T cells were grown in DMEM supplemented with 10% fetal bovine serum (HyClone, Logan, UT, USA) and penicillin–streptomycin. Cells were incubated at 37 °C in a humidified atmosphere with 95% air/5% CO2. HEK293T cells (5 × 10^3) were incubated in 96-well plates to measure cell viability using a Cell Counting Kit-8 (CCK-8; Dojindo Laboratories, Kumamoto, Japan). After overnight incubation, the medium was changed to fresh medium containing CPT at doses of 50~0.1 μM in three wells each. Then, the cells were incubated for 24, 48, or 72 h and photographed under a phase-contrast microscope. We added 100 μL of fresh medium and 10 μL of CCK-8 solution to each well. After incubation for 3 h at 37 °C, the optical density (OD) at 450 nm was measured using a Spectramax i3x instrument (Molecular Devices, San Jose, CA, USA). The cell viability was calculated as follows: cell viability (%) = (OD (experiment) − OD (blank))/(OD (control) − OD (blank)) × 100%

[4] = administered intravenously; no reference printed ('generally known'); cited from earlier work
human V1bR = target: T1, human V1bR (Homo sapiens, UniProt P47901); assay: V1bR functional assay, agonist effect (intracellular Ca^2+ increase, fluorimetry, RBL cells); type: cell-based
T1 construct: host or cells: RBL
T1 sequence (P47901 1-424): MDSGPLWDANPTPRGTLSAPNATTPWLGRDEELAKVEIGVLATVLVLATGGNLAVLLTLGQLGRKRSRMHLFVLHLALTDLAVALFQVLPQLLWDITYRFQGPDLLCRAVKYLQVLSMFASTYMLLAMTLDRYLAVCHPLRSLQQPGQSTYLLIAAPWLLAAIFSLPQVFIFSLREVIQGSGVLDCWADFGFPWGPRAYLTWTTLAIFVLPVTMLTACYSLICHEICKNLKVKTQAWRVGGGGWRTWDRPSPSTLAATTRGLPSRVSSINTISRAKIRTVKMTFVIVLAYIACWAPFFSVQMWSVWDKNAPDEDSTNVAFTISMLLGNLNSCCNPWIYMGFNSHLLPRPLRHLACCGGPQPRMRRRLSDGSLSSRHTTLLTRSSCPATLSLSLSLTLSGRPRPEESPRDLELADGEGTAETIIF
Description: (§1) Detailed information about the cells tested and other experimental conditions are described in Table 2. Briefly, cells were transfected with a recombinant expression vector capable of expressing each type of human OXT/AVP receptor. To evaluate the agonist effects on OXTR, V1aR, and V1bR, the intracellular Ca^2+ increase after treatment with OTP or CPT was measured by fluorimetry. […] For V2R receptors, cells were treated with peptides with or without the stimulant for 30 min. After that, cyclic AMP (cAMP) concentrations were measured by homogeneous time-resolved fluorescence (HTRF). The results were represented as the percent submaximal response achieved by the stimulant. All experiments were performed in triplicate. Data are presented as the mean ± standard error of the mean. The 50% effective concentration (EC50) and 50% inhibitory concentration (IC50) values were determined using a 4-parameter logistic fitting of a dose–response curve using SigmaPlot 10.0 (Systat Software, Palo Alto, CA, USA).

human V1aR [5] = target: T2, human V1aR (Homo sapiens, UniProt P37288); assay: V1aR functional assay, agonist effect (intracellular Ca^2+ increase, fluorimetry, CHO cells); type: cell-based; settings: up to 50 μM, RT, % of control response (1 µM AVP), triplicate
T2 construct: host or cells: CHO
Description: as §1

human V2R = target: T3, human V2R (Homo sapiens, UniProt P30518); assay: V2R functional assay, agonist effect (cAMP accumulation, HTRF, CHO cells); type: cell-based
T3 construct: host or cells: CHO
Description: as §1

human OXTR [6] = target: T4, human OXTR (Homo sapiens, UniProt P30559); assay: OXTR functional assay, antagonist effect (30 nM OXT-induced intracellular Ca^2+, fluorimetry, ECV304 cells); type: cell-based
T4 construct: host or cells: ECV304
T4 sequence (P30559 1-389): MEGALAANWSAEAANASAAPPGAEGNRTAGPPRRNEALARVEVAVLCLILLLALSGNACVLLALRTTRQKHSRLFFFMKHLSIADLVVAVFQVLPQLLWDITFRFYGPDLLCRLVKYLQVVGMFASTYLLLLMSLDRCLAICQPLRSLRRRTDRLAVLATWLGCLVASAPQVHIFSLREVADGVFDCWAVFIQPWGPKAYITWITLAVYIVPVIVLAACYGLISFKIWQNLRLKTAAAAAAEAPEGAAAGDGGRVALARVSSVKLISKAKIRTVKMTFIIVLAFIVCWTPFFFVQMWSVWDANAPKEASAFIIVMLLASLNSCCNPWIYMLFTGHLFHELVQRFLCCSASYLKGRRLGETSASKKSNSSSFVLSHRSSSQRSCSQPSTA
Description: as §1

human OXTR [7] = target: T4, human OXTR; assay: OXTR functional assay, agonist effect (intracellular Ca^2+ increase, fluorimetry, transfected ECV304 cells); type: cell-based; settings: up to 50 μM, RT, % of control response (1 µM OXT), triplicate
Description: as §1

human V1aR [8] = target: T2, human V1aR; assay: V1aR functional assay, antagonist effect (10 nM AVP-induced intracellular Ca^2+, fluorimetry, CHO cells); type: cell-based
Description: as §1

V1aR [9] = settings: no reference given; cited from earlier work
Source text: (§2) Currently, desmopressin is the antidiuretic drug of choice for the treatment of excessive and/or uncontrolled urination. […] Although desmopressin is generally considered safe and efficacious in the treatment o ...

[10] = treatment of nocturia, enuresis, and diabetes insipidus; ref [26]; cited from earlier work
Source text: as §2

V1aR [11] = settings: ref [17]; cited from earlier work
[12] = target: T5, human AVP type 1b receptor (human) (UniProt P47901)
T5 sequence: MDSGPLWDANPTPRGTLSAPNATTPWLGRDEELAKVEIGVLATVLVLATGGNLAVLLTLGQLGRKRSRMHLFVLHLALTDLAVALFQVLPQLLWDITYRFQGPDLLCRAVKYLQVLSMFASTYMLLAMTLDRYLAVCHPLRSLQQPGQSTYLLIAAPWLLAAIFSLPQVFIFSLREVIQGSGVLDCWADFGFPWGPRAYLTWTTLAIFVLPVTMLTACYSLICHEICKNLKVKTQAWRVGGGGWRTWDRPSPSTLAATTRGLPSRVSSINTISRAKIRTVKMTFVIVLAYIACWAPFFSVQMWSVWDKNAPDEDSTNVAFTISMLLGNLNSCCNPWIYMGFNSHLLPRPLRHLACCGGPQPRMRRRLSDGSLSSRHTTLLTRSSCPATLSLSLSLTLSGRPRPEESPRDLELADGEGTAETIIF

[13] = target: human AVP type 2 receptor (human) (UniProt P30518)
[14] = target: human vasopressin receptor V1aR (human) (UniProt P37288)
[15] = target: human oxytocin receptor (human) (UniProt P30559)
[16] = target: human AVP type 2 receptor (human) (UniProt P30518); remark: listed apart in the source
[17] = target: human oxytocin receptor (human) (UniProt P30559); remark: listed apart in the source
[18] = 24 h after treatment, CCK-8, triplicate
[19] = 48 h after treatment, CCK-8, triplicate
[20] = nanomolar level of CPT (Figure 2E, 36.55 nM), calculated by curve-fitting

T2 sequence (P37288 whole entry): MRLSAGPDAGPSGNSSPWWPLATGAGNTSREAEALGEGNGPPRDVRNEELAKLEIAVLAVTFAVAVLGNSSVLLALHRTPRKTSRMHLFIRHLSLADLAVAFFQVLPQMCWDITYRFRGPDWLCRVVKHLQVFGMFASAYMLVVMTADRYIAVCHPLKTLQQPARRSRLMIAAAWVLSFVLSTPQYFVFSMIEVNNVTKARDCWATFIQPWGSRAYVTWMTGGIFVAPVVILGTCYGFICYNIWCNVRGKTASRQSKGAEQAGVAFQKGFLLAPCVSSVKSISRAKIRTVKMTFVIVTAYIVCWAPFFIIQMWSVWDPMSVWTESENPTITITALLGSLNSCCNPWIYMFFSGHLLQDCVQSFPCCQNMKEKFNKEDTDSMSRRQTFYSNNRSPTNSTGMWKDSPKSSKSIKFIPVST
human vasopressin receptor V1aR (human), sequence (P37288 whole entry): as above

Molecule: NC(=O)CC[C@@H]1NC(=O)[C@H](Cc2ccccc2)NC(=O)[C@H](Cc2ccc(O)cc2)NC(=O)[C@@H](N)CSSC[C@@H](C(=O)N2CCC[C@H]2C(=O)N[C@@H](CCCN=C(N)N)C(=O)NCC(N)=O)NC(=O)[C@H](CC(N)=O)NC1=O [AVP, arginine vasopressin]
- EC50 (rat V2R): 43.5 nM
- antidiuretic effect (in words) (Sprague-Dawley (SD) rats [1]; SD rats, 0.001 mg/mL/kg micro intravenous tail administration): shows an antidiuretic effect
- lethality (Sprague-Dawley (SD) rats [2]; 0.001 mg/mL/kg micro intravenous tail administration): occasionally lethal
- death or signs of toxicity (Sprague-Dawley (SD) rats [2]): occasionally caused death
- EC50 (rat V1bR): 1.31 nM
- viable HEK293T cells [3, 18]: Over 98%
- viable HEK293T cells [3, 19]: Over 98%
- viability compared to PBS control (in words) ([3]; 72 h, 0.1–10 μM, CCK-8, triplicate): slightly increase the viability
- half-life [4]: several minutes

Molecule: CC[C@H](C)[C@H](NC(=O)[C@@H]1CCCN1C(=O)[C@@H]1CSSC[C@H](N)C(=O)N[C@@H](Cc2ccc(O)cc2)C(=O)N[C@@H](Cc2ccccc2)C(=O)N[C@@H](CCCNC(=N)N)C(=O)N[C@@H](CC(N)=O)C(=O)N1)C(=O)NCC(N)=O [CPT, cephalotocin] (H-CYFRNCPIG-NH2; disulfide 1-6)
- EC50 (human V1bR; RBL, intracellular Ca^2+, fluorimetry, RT, 4-parameter logistic fitting, triplicate): 10 nM
- expected V1bR activation, nanomolar level (human V1bR; [20]): ~ 80%
- V1aR-mediated intracellular Ca^2+ increase (agonist effect) (human V1aR [5]): not activated
- EC50 (human V2R; CHO, cAMP, HTRF, 30 min RT, 4-parameter logistic fitting, triplicate): 12.1 nM
- expected V2R activation, nanomolar level (human V2R; [20]): ~ 80%
- death or signs of toxicity (Sprague-Dawley (SD) rats [2]): did not cause any death or signs of toxicity
- lethality (Sprague-Dawley (SD) rats [2]; single intravenous injection (1 mg/mL/kg)): did not kill the experimental animals
- IC50 (human OXTR [6]; ECV304, stimulant 30 nM OXT, RT, fluorimetry, 4-parameter logistic fitting, triplicate): > 50000 nM
- expected effect on OXTR, nanomolar level (human OXTR [6]; [20]): < 20%
- OXTR-mediated intracellular Ca^2+ increase (agonist effect) (human OXTR [7]): not activated
- IC50 (human V1aR [8]): 1230 nM
- inhibition at 1.65 µM (human V1aR [8]; CHO, micromolar level (Figure 2F, 1.65 μM), calculated by curve-fitting, read-out: expected V1aR inhibition, micromolar level): ≥ 50%
- expected effect on V1aR, nanomolar level (human V1aR [8]; [20]): < 20%
- cell morphology [3]: unchanged
- viable HEK293T cells [3, 18]: Over 98%
- viable HEK293T cells [3, 19]: Over 98%

Molecule: Mpr-YFQNCP(D-Arg)G-NH2 (disulfide bond) (disulfide) [Desmopressin, 1-deamino-8-D-arginine vasopressin, positive control]
- osmolarity (in words) (Sprague-Dawley (SD) rats [1]; male rats under 200 g, single microvenous injection, n=6 for each group): no change
- death or signs of toxicity (Sprague-Dawley (SD) rats [2]): did not cause any death or signs of toxicity
- V1aR-mediated pressor activity (V1aR [9]): low
- serious adverse effect [10]: hyponatremia
- half-life [4]: several hours

Molecule: inotocin
- V1aR activity (in words) (V1aR [11]): selective antagonists of V1aR

B1: Cephalotocin (peptide)
peptide: CYFRNCPIG-NH2
modifications: disulfide 1-6; N-terminus assumed
SMILES: CC[C@H](C)[C@H](NC(=O)[C@@H]1CCCN1C(=O)[C@@H]1CSSC[C@H](N)C(=O)N[C@@H](Cc2ccc(O)cc2)C(=O)N[C@@H](Cc2ccccc2)C(=O)N[C@@H](CCCNC(=N)N)C(=O)N[C@@H](CC(N)=O)C(=O)N1)C(=O)NCC(N)=O
- EC50 of V1bR-mediated intracellular Ca^2+ release (agonist effect) in RBL cells expressing human V1bR, fluorimetry [12]: 10 nM
- EC50 of V2R-mediated cAMP accumulation (agonist effect) in CHO cells expressing human V2R, HTRF [13]: 12.1 nM
- IC50 of the antagonist effect on intracellular Ca^2+ release induced by 10 nM AVP in CHO cells expressing human V1aR (pair blocked: AVP and V1aR) [14]: 1230 nM
- IC50 of the antagonist effect on intracellular Ca^2+ release induced by 30 nM OXT in ECV304 cells expressing human OXTR (pair blocked: OXT and OXTR) [15]: > 50000 nM

B2: Octopressin (peptide)
peptide: CYWTSCPIG-NH2
modifications: disulfide 1-6; N-terminus assumed
SMILES: CC[C@H](C)[C@H](NC(=O)[C@@H]1CCCN1C(=O)[C@@H]1CSSC[C@H](N)C(=O)N[C@@H](Cc2ccc(O)cc2)C(=O)N[C@@H](Cc2c[nH]c3ccccc23)C(=O)N[C@@H]([C@@H](C)O)C(=O)N[C@@H](CO)C(=O)N1)C(=O)NCC(N)=O
- V2R-mediated cAMP accumulation (agonist effect) in CHO cells expressing human V2R, percent of the control response at 50 μM OTP [16]: < 30%
- antagonist effect on intracellular Ca^2+ release induced by 30 nM OXT in ECV304 cells expressing human OXTR (pair blocked: OXT and OXTR), inhibition rate at 50 μM OTP [17]: 30%
